Assay results reported in ChEMBL document CHEMBL1153224, “Fluorinated piperidine acetic acids as gamma-secretase modulators” (Bioorg Med Chem Lett, 2010).

Assays:
Gamma-secretase [1] = assay: Inhibition of gamma secretase in human SHSY5Y cells expressing wild-type APP assessed as inhibition of intracellular amyloid beta-42 by electrochemiluminescent assay; format: cell-based; conditions: sh-sy5y
Gamma-secretase [2] = assay: Inhibition of gamma secretase in human SHSY5Y cells expressing wild-type APP assessed as inhibition of intracellular amyloid beta-40 by electrochemiluminescent assay; format: cell-based; conditions: sh-sy5y
[3] = Plasma clearance in rat at 1 mg/kg, iv and 2 mg/kg, po; format: ADME, organism-based
[4] = Volume of distribution at steady state in rat at 1 mg/kg, iv and 2 mg/kg, po; format: ADME, organism-based; conditions: in vivo, read-out: Vdss
[5] = Half life in rat at 1 mg/kg, iv and 2 mg/kg, po; format: ADME, organism-based; conditions: in vivo
[6] = (§1) Oral bioavailability in rat at 2 mg/kg; format: ADME, organism-based; conditions: in vivo
Brain [7] = assay: Reduction in amyloid beta 42 level in APP-YAC transgenic mouse brain at 20 mg/kg, po after 7 hrs; format: functional; design: scale not given: the % may be the effect or the level left
Mus musculus [8] = assay: (§2) Drug level in APP-YAC transgenic mouse brain at 10 mg/kg, po after 7 hrs; format: ADME, organism-based; design: dose 10 mg/kg, route oral; conditions: in vivo, 7 h
Mus musculus [9] = assay: (§3) Plasma concentration in APP-YAC transgenic mouse at 10 mg/kg, po after 7 hrs; format: ADME, organism-based; design: dose 10 mg/kg, route oral; conditions: in vivo, 7 h
Rattus norvegicus [10] = assay: as §1; format: ADME, organism-based; conditions: in vivo
[11] = as §2; format: ADME, organism-based; design: dose 10 mg/kg, route oral; conditions: APP-YAC transgenic, brain, read-out: Drug uptake
[12] = as §3; format: ADME, organism-based; design: dose 10 mg/kg, route oral; conditions: APP-YAC transgenic, plasma
Brain [13] = assay: Reduction in amyloid beta 42 level in rat brain after 7 hrs; format: functional, tissue-based
Plasma = assay: Reduction in amyloid beta 42 level in rat plasma after 7 hrs; format: functional, cell-free
Rattus norvegicus [14] = species: Rattus norvegicus; assay: Reduction in amyloid beta 42 level in rat after 7 hrs; format: functional, organism-based
[15] = AUC (0 to 24 hrs) in rat at 250 mg/kg, po after 7 days; format: ADME, organism-based; design: time < 24 hr, dose 250 mg/kg, route oral; conditions: plasma
Rattus norvegicus [16] = assay: Toxicity in rat assessed as notch -related activity at 250 mg/kg, after 7 days; format: organism-based; design: dose 250 mg/kg; conditions: in vivo, 168 h

SMILES | IC50 (Gamma-secretase [1]) [µM] | IC50 (Gamma-secretase [2]) [µM] | also measured
C[Si](C)(C)CC[C@H](CCC(F)(F)F)N1CC[C@@H](CC(=O)O)C(F)(F)[C@H]1c1ccc(C(F)(F)F)cc1 | 0.23 | > 10 | clearance [3]: 9.1 mL/min/kg; Vd [4]: 5.1 L/kg; half-life [5]: 6.4 h; bioavailability [6]: 20%; Activity (Brain [7]): -64%; Drug uptake (Mus musculus [8]): Not Active; Cp (Mus musculus [9]): Not Active
CC(C)(C)CCC(CCC(F)(F)F)N1CCC(F)(F)[C@H](CC(=O)O)[C@H]1c1ccc(C(F)(F)F)cc1 (single isomer, unassigned; enantiomer 1) | 1.4 | > 10 | 
CC(C)(C)C#CC(CCC(F)(F)F)N1CCC(F)(F)[C@H](CC(=O)O)[C@H]1c1ccc(C(F)(F)F)cc1 (some centres not stated) | 1.5 | > 10 | 
CC(C)(C)CC[C@H](CCC(F)(F)F)N1CC[C@@H](CC(=O)O)C(F)(F)[C@H]1c1ccc(C(F)(F)F)cc1 | 0.49 | > 10 | 
CC(C)(C)CCC(CCC(F)(F)F)N1CCC(F)(F)[C@H](CC(=O)O)[C@H]1c1ccc(C(F)(F)F)cc1 (some centres not stated) | 0.6 | > 10 | clearance [3]: 3.8 mL/min/kg; Vd [4]: 1.9 L/kg; half-life [5]: 5.1 h; F (Rattus norvegicus [10]): 160%; Activity (Brain [7]): -84%; concentration at 7 h [11]: 580 nM; concentration at 7 h [12]: 1100 nM; EC50 (Brain [13]): 1 µM; EC50 (Plasma): 3.7 µM; IC50 (Rattus norvegicus [14]): Dose-dependent effect; ED50 (Rattus norvegicus [14]; Rattus norvegicus, 7 h): 5 mg/kg; AUC at 24 h [15]: 2100 µM·h; Activity (Rattus norvegicus [16]): Non-toxic
CC(C)CCC(CCC(C)C)N1CCC(F)(F)[C@H](CC(=O)O)[C@H]1c1ccc(C(F)(F)F)cc1 | 0.88 | > 10 | 

The next lines start with results.

IC50 (Gamma-secretase [1]) [µM] | IC50 (Gamma-secretase [2]) [µM] | SMILES | also measured
0.71 | > 10 | CC(C)CC[C@H](c1ccc(C(F)(F)F)cc1)N1CC[C@@H](CC(=O)O)C(F)(F)[C@H]1c1ccc(C(F)(F)F)cc1 | 
0.8 | > 10 | CC(C)(C)C#CC(CCC(F)(F)F)N1CCC(F)(F)[C@H](CC(=O)O)[C@H]1c1ccc(C(F)(F)F)cc1 (mixture of isomers) | 
0.64 | > 10 | C[Si](C)(C)CCC(CCC(F)(F)F)N1CCC(F)(F)[C@H](CC(=O)O)[C@H]1c1ccc(C(F)(F)F)cc1 (single isomer, unassigned; enantiomer 2) | 
0.39 | > 10 | CC(C)(C)C#CC(CCC(F)(F)F)N1CCC(F)(F)[C@H](CC(=O)O)[C@H]1c1ccc(C(F)(F)F)cc1 (single isomer, unassigned; enantiomer 2) | 
> 10 | > 10 | CN1CCC(F)(F)[C@H](CC(=O)O)[C@H]1c1ccc(C(F)(F)F)cc1 | 
